Reference: patent US20260191793A1, “HBV SPECIFIC EXOSOMES AND USES THEREOF” (priority 2022, published 2026)

Key:
Format in all cases: cell-based, Hepatitis B virus (HBV)
HBV in HepG2-NTCP cells = assay: Infection of HepG2-NTCP cells with supernatants of gRNA/Cas9-transfected HepDE19 cells (infectious HBV particles); settings: HepG2-NTCP infected with supernatants of transfected HepDE19 cells, vs supernatants of gRNAc-transfected cells, qPCR
Method: To characterize the effects of synthetic gRNA5/Cas9 and gRNA9/Cas9 on HBV replication, the ability of HBV particles derived from HepDE19 cells that have been transfected with gRNA5, gRNA9, or gRNAc RNPs for 3 days to infect HepG2-NTCP cells was assessed. HepG2-NTCP cells were infected for 6 days with supernatants harvested from HepDE19 cells. Genomic DNA was isolated from HepG2-NTCP cells and used for qPCR quantification of HBV DNA.
HBV infectious particles were harvested from the supernatants of gRNA/Cas9-treated HepDE19 cells and used for the infection of HepG2-NTCP cells following a previously published method. Briefly, the supernatants of gRNA RNP-treated HepDE19 cells were harvested and concentrated using a PEG concentration kit (Cat #ab102538, Abcam, Waltham, MA). For HBV infection, 2.5×10^5 HepG2-NTCP cells were seeded in a 12-well plate and mixed with 10 μl concentrated HBV supernatants in 1 ml hepatocyte maintenance medium (HMM) (with 8% PEG8000 and 5% DMSO) at 37° C. for 16 h. The culture media were changed daily with fresh HMM. After 8 days, the cells were harvested and HBV DNA and cccDNA levels were determined as described below.
Total and protein-free HBV DNAs were extracted from whole cell lysate using the Hirt DNA method according to a previously published protocol. For HBV cccDNA analysis, the protein-free DNA was treated with 10 units of T5 exonuclease (NEB) at 37° C. for 30 min, followed by 95° C. for 5 min, and diluted 4-fold with nuclease-free water. Next, the cccDNA was cleaned with a DNA clean and concentrator kit (ZYMO Research, Irvine, CA) and used for PCR. HBV total DNA and cccDNA were analyzed by real-time PCR using a TaqMan PCR assay. The primers and probe used to amplify HBV total DNA were: HBV total DNA forward: 5′-[…]-3′ (SEQ ID NO: 58), reverse 5′-[…]-3′ (SEQ ID NO: 59), and internal probe: 5′-FAM-[…]-TAMRA-3′ (SEQ ID NO: 60). The primers and probe used to amplify HBV cccDNA (Genotype D, subtype ayw) were: forward: 5′-[…]-3′ (SEQ ID NO: 61), reverse 5′-[…]-3′ (SEQ ID NO: 62), and internal probe 5′-FAM-[…]-TAMRA-3′ (SEQ ID NO: 63). The PCR reactions were performed in 20 μl volumes and contained 2 μl DNA. The PCR conditions were: 95° C. for 10 min, followed by 45 cycles of 95° C. for 15 s and 64° C. for 30 s. The DNA levels were determined by the […] method and values were normalized to the control group.
Sodium taurocholate cotransporting polypeptide (NTCP) is a functional receptor for human HBV. The human hepatoma cell line HepG2 is not susceptible to HBV infection due to lack of NTCP; however, HepG2 cells transfected with NTCP expression plasmids (HepG2-NTCP) are susceptible to natural HBV infection. To further characterize the inhibitory effects of the synthetic gRNA/Cas9 RNPs on HBV replication, HepG2-NTCP cells were incubated with supernatants collected from gRNA/Cas9 RNP-transfected HepDE19 cell culture (after 4 days). Genomic DNA was isolated from HepG2-NTCP cells on day 8 after HBV infection and used for the assessment of HBV replication.

HBV cccDNA = assay: HBV-infected HepG2-NTCP cells incubated with exosomes packaged with gRNA/Cas9 RNPs, HBV cccDNA; settings: delivery by engineered exosomes, 3 days (1×10^8 particles packaged with 40 μM gRNA/Cas9 RNPs)
Method: HepG2-NTCP cells were infected for 6 days with the supernatants of HepDE19 cells. Next, HepG2-NTCP cells were transfected for 3 days with gRNA5, gRNA9, gRNA5+gRNA9, or gRNAc RNPs (FIG. 4A) or incubated with exosomes carrying gRNA5, gRNA9, gRNA5+gRNA9, or gRNAc RNPs (1×10^8 particles packaged with 40 μM gRNA/Cas9 RNPs) (FIG. 4B), followed by measuring HBV cccDNA.
To test whether the synthetic gRNA/Cas9 can reduce newly formed HBV cccDNA in HepG2-NTCP cells, the cells with HBV particle-containing supernatants from HepDE19 cells (supernatants harvested 6 days after culture in Tet-free media) were infected. The HepG2-NTCP cells were infected with HBV particles for 6 days and then transfected with gRNA5, gRNA9, gRNA5 plus gRNA9 (in combination), or gRNAc RNPs for 3 days, followed by measuring HBV cccDNA. In another experiment, the infected HepG2-NTCP cells were incubated for 3 days with exosomes packaged with gRNA5, gRNA9, gRNA5 plus gRNA9 (in combination), or gRNAc RNPs, followed by measuring HBV cccDNA.

HBV DNA = assay: Sanger sequencing of HBV DNA fragments from treated HepDE19 cells; settings: compared with gRNAc
Method: Following treatment with gRNA5/Cas9+gRNA9/Cas9, or gRNAc/Cas9 RNPs, genomic DNA was isolated from HepDE19 cells using the PureLink Genomic DNA Mini Kit (Cat #K182001, Invitrogen). DNA fragments containing the gRNA target sequences were amplified by qPCR using primers flanking the cleavage sites. The PCR products were confirmed using 1% agarose gel electrophoresis and purified using a QIAquick gel extraction kit (Cat #28704, Qiagen). Sequencing of the extracted DNA fragments was performed by GENEWIZ (Chelmsford, MA) using Sanger's sequencing method. The PCR primers used for the detection of gRNA5 and gRNA9 flanking regions are described above. The sequencing readouts were aligned with the gRNAc, which was compared to the HBV sequence in the database (ayw strain, Genbank accession number: NC_003977.2). The Chromas's software (Technelysium DNA sequencing software) was used to read the nucleotide peaks, and the alignment of two or more sequences was performed using the BLAST tool from NCBI-BLAST to compare the nucleotide sequences.
Following a successful CRISPR/Cas9 cleavage, DNA damage repair pathways are initiated, and nucleotide mutagenesis occurs in the targeted genome, introducing substitution mutations. […]

Row | Sequence | HBV DNA in HepG2-NTCP cells (HBV in HepG2-NTCP cells) | HBV cccDNA in HepG2-NTCP cells (HBV in HepG2-NTCP cells) | HBV DNA in HepG2-NTCP cells (HBV in HepG2-NTCP cells; listed as gRNA9/Cas9) | HBV cccDNA in HepG2-NTCP cells (HBV in HepG2-NTCP cells; listed as gRNA9/Cas9) | HBV cccDNA levels (HBV cccDNA) | mutations at gRNA-targeted sites of HBV DNA (Sanger sequencing) (HBV DNA) | HBV DNA in HepG2-NTCP cells (HBV in HepG2-NTCP cells; listed as gRNA5/Cas9) | HBV cccDNA in HepG2-NTCP cells (HBV in HepG2-NTCP cells; listed as gRNA5/Cas9)
1 | GGTCTCCATGCGACGTGCAGNGG [gRNA9] | significantly lower | remarkably lower | significantly fewer copies | significantly fewer copies | significantly reduced | specific DNA indel mutations | – | –
2 | GTTATCGCTGGATGTGTCTGNGG (guide GUUAUCGCUGGAUGUGUCUGNGG; complexed with Cas9 protein, chemistry not fully specified) [gRNA5, tested as synthetic gRNA/Cas9 RNP] | significantly lower | remarkably lower | – | – | significantly reduced | specific DNA indel mutations | significantly fewer copies | significantly fewer copies
